Experiments:
[1] = Observation of crystal formation in the patch; format: physicochemical
Description: (§1) 10 wt % melatonin was placed in a 70 mL vial and dissolved in methanol, and then 90 wt % adhesive was added thereto, followed by mixing in a roll mixer for 2 hours. Next, the mixture was allowed to stand for 30 minutes to remove bubbles, after which a silicone-treated polyethylene terephthalate release film was placed on a coating machine, and the mixed adhesive was dried, and then coated onto the release film to 70 μm. Thereafter, the resultant was dried in an oven at 80° C. for 3 minutes, and then a supporting layer film was laminated thereon and compressed using a roller press. The resultant was cut of a patch cutter, thereby manufacturing a patch having an area of 10 cm^2. Next, the physical properties of the patch and crystal formation were observed, and a percutaneous absorption test was performed.
as §1, with “Melatonin and a solubilizing agent were placed” for “10 wt % melatonin was placed”, “then an” for “then 90 wt %”, “coated on” for “coated onto”, “a support” for “a supporting”, “cut by using” for “cut of”, “were observed.” for “were observed, and a percutaneous absorption test was performed.”
A crystallization inhibitor was placed and dissolved in a 70 mL vial, and then a solubilizing agent, an antioxidant and melatonin were added and dissolved, after which an adhesive was added thereto, followed by mixing in a roll mixer for 2 hours. Next, the mixture was allowed to stand for 30 minutes to remove bubbles, after which a silicone-treated polyethylene terephthalate release film was placed on a coating machine, and the mixed adhesive was dried, and then coated on the release film to 70 μm. Thereafter, the resultant was dried in an oven at 80° C. for 3 minutes, and then a support layer film was laminated thereon and compressed using a roller press. The resultant was cut by using a patch cutter, thereby manufacturing a patch having an area of 10 cm^2. Next, the physical properties of the patch and crystal formation were observed.
A crystallization inhibitor was placed and dissolved in a 70 mL vial, and then a solubilizing agent, an antioxidant, a percutaneous absorption enhancer and melatonin were added thereto and dissolved, after which an adhesive was added thereto, followed by mixing in a roll mixer for 2 hours. […]

[2] = melatonin administered orally; cited from earlier work

Crystal formation (after 1 month) (microscopic observation) [1]	crystal formation in visual observation [1]	Compound	bioavailability [2] [%]	half-life [2]
fine crystal formation	no crystal formation	CCOCCOCCO [Transcutol CG, ethoxydiglycol]		
		COc1ccc2[nH]cc(CCNC(C)=O)c2c1 [melatonin]	20	about 1 hour
fine crystal formation	no crystal formation	CN1CCCC1=O [N-methyl pyrrolidone]		
